Assay results published in PubChem BioAssay AID1794818.
Active and inactive are the calls of the source.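 How the source made its calls: active means dose-dependent response absent in non-induced cells, with a sigmoidal fit giving a valid half-maximal concentration; inactive means the rest.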

Target: Chromaffin granule amine transporter (Homo sapiens) (UniProt P54219)
Assay: SLC18A1 vesicular uptake inhibitors, dose response, FFN206 fluorescent substrate, HEK-293 overexpressing cells (AID 1794818)
Settings: HEK-293 SLC18A1 OE, FFN206 uptake fluorescence

Chain of Chromaffin granule amine transporter (Homo sapiens) (P54219 whole entry, looked up): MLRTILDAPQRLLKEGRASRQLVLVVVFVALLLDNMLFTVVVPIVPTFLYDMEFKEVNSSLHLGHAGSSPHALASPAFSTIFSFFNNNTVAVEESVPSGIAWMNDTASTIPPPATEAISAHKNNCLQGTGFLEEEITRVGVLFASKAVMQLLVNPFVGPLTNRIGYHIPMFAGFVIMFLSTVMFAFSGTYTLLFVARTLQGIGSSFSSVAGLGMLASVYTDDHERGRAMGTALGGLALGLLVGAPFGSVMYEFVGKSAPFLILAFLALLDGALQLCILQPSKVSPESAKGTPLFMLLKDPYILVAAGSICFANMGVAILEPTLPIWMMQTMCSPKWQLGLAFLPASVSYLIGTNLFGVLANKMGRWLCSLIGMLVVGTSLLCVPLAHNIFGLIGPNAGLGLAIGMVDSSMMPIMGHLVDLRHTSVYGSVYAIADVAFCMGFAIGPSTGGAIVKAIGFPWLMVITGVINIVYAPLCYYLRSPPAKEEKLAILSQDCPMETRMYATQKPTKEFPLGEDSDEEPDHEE

Compound | outcome | IC50
COc1cc2c(cc1OC)C1CC(=O)C(CC(C)C)CN1CC2 (stereo not drawn) | inactive | –
CNc1ccc2c(CCN)cc(=O)oc2c1 | – | 2000 nM
COC(=O)[C@H]1[C@H]2C[C@@H]3c4[nH]c5cc(OC)ccc5c4CCN3C[C@H]2C[C@@H](OC(=O)c2cc(OC)c(OC)c(OC)c2)[C@@H]1OC | – | 50 nM
